From ChEMBL document CHEMBL3856181, “Cigarette Smoke-Induced Lung Disease Predisposes to More Severe Infection with Nontypeable Haemophilus influenzae: Protective Effects of Andrographolide” (J Nat Prod, 2016)
Calls of active or inactive are those of the source.

Columns and labels:
Type in all cases: functional, organism-based
Mus musculus [1] = experiment: Activation of Nrf2 in cigarette smoke-predisposed BALB/c mouse model of NTHi-inflammation assessed as increase in lung OH-1 expression at 5 and 10 mg/kg, ip administered post 1 and 24 hrs of NTHi-challenge by RT-PCR method
Mus musculus [2] = experiment: Antiinflammatory activity in cigarette smoke-predisposed BALB/c mouse model of NTHi-inflammation assessed as suppression of lung CXCL1/KC level at 5 and 10 mg/kg, ip administered post 1 and 24 hrs of NTHi-challenge by ELISA
Mus musculus [3] = experiment: Activation of Nrf2 in cigarette smoke-predisposed BALB/c mouse model of NTHi-inflammation assessed as increase in lung NQO1 expression at 5 and 10 mg/kg, ip administered post 1 and 24 hrs of NTHi-challenge by RT-PCR method
Mus musculus [4] = experiment: Anti-inflammatory activity in cigarette smoke-predisposed BALB/c mouse model of NTHi-inflammation assessed as reduction in neutrophil infiltration in BAL fluid at 10 mg/kg, ip administered at 1 and 24 hrs post NTHi-challenge by Wright-staining based differential cell counting method
Mus musculus [5] = experiment: Anti-inflammatory activity in cigarette smoke-predisposed BALB/c mouse model of NTHi-inflammation assessed as reduction in macrophage infiltration in BAL fluid at 10 mg/kg, ip administered at 1 and 24 hrs post NTHi-challenge by Wright-staining based differential cell counting method
Mus musculus [6] = experiment: Induction of Nrf2 nuclear translocation in cigarette smoke-predisposed BALB/c mouse model of NTHi-inflammation assessed as Nrf2 binding to antioxidant response element consensus DNA binding site at 5 and 10 mg/kg, ip administered post 1 and 24 hrs of NTHi-challenge by ELISA
Mus musculus [7] = experiment: Antiinflammatory activity in cigarette smoke-predisposed BALB/c mouse model of NTHi-inflammation assessed as suppression of lung IL-1 beta level at 5 and 10 mg/kg, ip administered post 1 and 24 hrs of NTHi-challenge by ELISA
Mus musculus [8] = experiment: Activation of Nrf2 in cigarette smoke-predisposed BALB/c mouse model of NTHi-inflammation assessed as increase in lung GCLM expression at 5 and 10 mg/kg, ip administered post 1 and 24 hrs of NTHi-challenge by RT-PCR method
Mus musculus [9] = experiment: Antiinflammatory activity in cigarette smoke-predisposed BALB/c mouse model of NTHi-inflammation assessed as reduction in lung inflammation score at 10 mg/kg, ip administered at 1 and 24 hrs post NTHi-challenge by hematoxylin and eosin staining-based method
[10] = Reduction of Keap1 gene expression in lungs of cigarette smoke-predisposed BALB/c mouse model of NTHi-inflammation at 5 and 10 mg/kg, ip administered post 1 and 24 hrs of NTHi-challenge by RT-PCR method
[11] = Downregulation of MMP9 gene expression in lungs of cigarette smoke-predisposed BALB/c mouse model of NTHi-inflammation at 5 and 10 mg/kg, ip administered post 1 and 24 hrs of NTHi-challenge by RT-PCR method
[12] = Downregulation of MMP8 gene expression in lungs of cigarette smoke-predisposed BALB/c mouse model of NTHi-inflammation at 5 and 10 mg/kg, ip administered post 1 and 24 hrs of NTHi-challenge by RT-PCR method
Mus musculus [13] = experiment: Antiinflammatory activity in cigarette smoke-predisposed BALB/c mouse model of NTHi-inflammation assessed as suppression of lung 8-OHdG level at 5 and 10 mg/kg, ip administered post 1 and 24 hrs of NTHi-challenge by ELISA
Mus musculus [14] = experiment: Activation of Nrf2 in cigarette smoke-predisposed BALB/c mouse model of NTHi-inflammation assessed as increase in lung GR expression at 5 and 10 mg/kg, ip administered post 1 and 24 hrs of NTHi-challenge by RT-PCR method
Mus musculus [15] = experiment: Activation of Nrf2 in cigarette smoke-predisposed BALB/c mouse model of NTHi-inflammation assessed as increase in lung GPx2 expression at 5 and 10 mg/kg, ip administered post 1 and 24 hrs of NTHi-challenge by RT-PCR method
Mus musculus [16] = experiment: Antiinflammatory activity in cigarette smoke-predisposed BALB/c mouse model of NTHi-inflammation assessed as suppression of lung TNF-alpha level at 5 and 10 mg/kg, ip administered post 1 and 24 hrs of NTHi-challenge by ELISA

C=C1CC[C@@H]2[C@](C)(CO)[C@H](O)CC[C@@]2(C)[C@@H]1C/C=C1/C(=O)OC[C@H]1O
active: Activity (Mus musculus [1]) | inhibition (Mus musculus [2]) | Activity (Mus musculus [3]) | Activity (Mus musculus [4]) | Activity (Mus musculus [5]) | Activity (Mus musculus [6]) | inhibition (Mus musculus [7]) | Activity (Mus musculus [8]) | Activity (Mus musculus [9]) | Activity [10] | Activity [11] | Activity [12] | inhibition (Mus musculus [13]) | Activity (Mus musculus [14]) | Activity (Mus musculus [15]) | inhibition (Mus musculus [16])
